Assay results: PubChem BioAssay AID1259407 (Chemical Carcinogenesis Research Information System (CCRIS), 2018)
The source made the active and inactive calls. How the calls were made is not given here.

Test system: CCRIS mutagenicity, Ames/micronucleus/aberration tests
Test: CCRIS mutagenicity studies
[1] = Test System: AMES SALMONELLA TYPHIMURIUM, Strain/Indicator: TA98, Metabolic Activation: NONE, Method: PREINCUBATION
[2] = Test System: AMES SALMONELLA TYPHIMURIUM, Strain/Indicator: TA100, Metabolic Activation: NONE, Method: PREINCUBATION
[3] = Test System: AMES SALMONELLA TYPHIMURIUM, Strain/Indicator: TA102, Metabolic Activation: NONE, Method: PREINCUBATION
[4] = Test System: AMES SALMONELLA TYPHIMURIUM, Strain/Indicator: TA102, Metabolic Activation: RAT, LIVER, S-9, AROCLOR 1254, Method: PREINCUBATION
[5] = Test System: AMES SALMONELLA TYPHIMURIUM, Strain/Indicator: TA97, Metabolic Activation: NONE, Method: PREINCUBATION
[6] = Test System: AMES SALMONELLA TYPHIMURIUM, Strain/Indicator: TA98, Metabolic Activation: HAMSTER, LIVER, S-9, AROCLOR 1254 (10%), Method: PREINCUBATION
[7] = Test System: AMES SALMONELLA TYPHIMURIUM, Strain/Indicator: TA98, Metabolic Activation: RAT, LIVER, S-9, AROCLOR 1254 (10%), Method: PREINCUBATION
[8] = Test System: AMES SALMONELLA TYPHIMURIUM, Strain/Indicator: TA100, Metabolic Activation: HAMSTER, LIVER, S-9, AROCLOR 1254 (10%), Method: PREINCUBATION
[9] = Test System: AMES SALMONELLA TYPHIMURIUM, Strain/Indicator: TA100, Metabolic Activation: RAT, LIVER, S-9, AROCLOR 1254 (10%), Method: PREINCUBATION
[10] = Test System: AMES SALMONELLA TYPHIMURIUM, Strain/Indicator: TA1535, Metabolic Activation: HAMSTER, LIVER, S-9, AROCLOR 1254 (10%), Method: PREINCUBATION
[11] = Test System: AMES SALMONELLA TYPHIMURIUM, Strain/Indicator: TA1535, Metabolic Activation: NONE, Method: PREINCUBATION
[12] = Test System: AMES SALMONELLA TYPHIMURIUM, Strain/Indicator: TA1537, Metabolic Activation: HAMSTER, LIVER, S-9, AROCLOR 1254 (10%), Method: PREINCUBATION
[13] = Test System: AMES SALMONELLA TYPHIMURIUM, Strain/Indicator: TA1537, Metabolic Activation: NONE, Method: PREINCUBATION
[14] = Test System: AMES SALMONELLA TYPHIMURIUM, Strain/Indicator: TA1537, Metabolic Activation: RAT, LIVER, S-9, AROCLOR 1254 (10%), Method: PREINCUBATION

What does the source list for Nc1ccc2c(c1)CN1C(=O)c3ccccc3C1=N2?
mutagenic call (Test System: AMES SALMONELLA TYPHIMURIUM, Strain/Indicator: DJ400, Metabolic Activation: RAT, LIVER, S-9, AROCLOR 1254, Method: PREINCUBATION): active; positive; mutagenic call (Test System: AMES SALMONELLA TYPHIMURIUM, Strain/Indicator: DJ460, Metabolic Activation: RAT, LIVER, S-9, AROCLOR 1254, Method: PREINCUBATION): active; positive; mutagenic call (Test System: AMES SALMONELLA TYPHIMURIUM, Strain/Indicator: TA98(1,8-DNP6), Metabolic Activation: RAT, LIVER, S-9, AROCLOR 1254, Method: PREINCUBATION): active; positive; mutagenic call [1]: active; positive; mutagenic call (Test System: AMES SALMONELLA TYPHIMURIUM, Strain/Indicator: TA98, Metabolic Activation: RAT, LIVER, S-9, AROCLOR 1254, Method: PREINCUBATION): active; positive; mutagenic call [2]: active; positive; mutagenic call (Test System: AMES SALMONELLA TYPHIMURIUM, Strain/Indicator: TA100, Metabolic Activation: RAT, LIVER, S-9, AROCLOR 1254, Method: PREINCUBATION): active; positive; mutagenic call [3]: active; positive; mutagenic call [4]: active; positive; mutagenic call (Test System: AMES SALMONELLA TYPHIMURIUM, Strain/Indicator: TA1538(1,8-DNP6), Metabolic Activation: RAT, LIVER, S-9, AROCLOR 1254, Method: PREINCUBATION): active; positive; mutagenic call (Test System: AMES SALMONELLA TYPHIMURIUM, Strain/Indicator: TA1538, Metabolic Activation: RAT, LIVER, S-9, AROCLOR 1254, Method: PREINCUBATION): active; positive; mutagenic call (Test System: AMES SALMONELLA TYPHIMURIUM, Strain/Indicator: YG1012, Metabolic Activation: RAT, LIVER, S-9, AROCLOR 1254, Method: PREINCUBATION): active; positive; mutagenic call (Test System: AMES SALMONELLA TYPHIMURIUM, Strain/Indicator: YG1024, Metabolic Activation: RAT, LIVER, S-9, AROCLOR 1254, Method: PREINCUBATION): active; positive; mutagenic call (Test System: UDS MOUSE HEPATOCYTES, Strain/Indicator: THY INCORP, Metabolic Activation: NONE, Method: AUTORADIOGRAPHY): active; positive; mutagenic call (Test System: UDS RAT HEPATOCYTES, Strain/Indicator: THY INCORP, Metabolic Activation: NONE, Method: AUTORADIOGRAPHY): active; positive

Which results are given for CCCCCC?
mutagenic call [5]: inactive; negative; mutagenic call (Test System: AMES SALMONELLA TYPHIMURIUM, Strain/Indicator: TA97, Metabolic Activation: RAT, LIVER, S-9, AROCLOR 1254, Method: PREINCUBATION): inactive; negative; mutagenic call [6]: inactive; negative; mutagenic call [1]: inactive; negative; mutagenic call [7]: inactive; negative; mutagenic call [8]: inactive; negative; mutagenic call [2]: inactive; negative; mutagenic call [9]: inactive; negative; mutagenic call [3]: inactive; negative; mutagenic call [4]: inactive; negative; mutagenic call [10]: inactive; negative; mutagenic call [11]: inactive; negative; mutagenic call (Test System: AMES SALMONELLA TYPHIMURIUM, Strain/Indicator: TA1535, Metabolic Activation: RAT, LIVER, S-9, AROCLOR 1254 (10%), Method: PREINCUBATION): inactive; negative; mutagenic call [12]: inactive; negative; mutagenic call [13]: inactive; negative; mutagenic call [14]: inactive; negative

N#CCc1ccccc1 was tested. Which mutagenic call (Test System: AMES SALMONELLA TYPHIMURIUM, Strain/Indicator: TA97, Metabolic Activation: HAMSTER, LIVER, S-9, AROCLOR 1254 (10%), Method: PREINCUBATION) did it give?
Its mutagenic call is “inactive; negative”.

What about the mutagenic call (Test System: AMES SALMONELLA TYPHIMURIUM, Strain/Indicator: TA97, Metabolic Activation: HAMSTER, LIVER, S-9, AROCLOR 1254 (30%), Method: PREINCUBATION) of the same compound?
The mutagenic call was “inactive; negative”.

What about the mutagenic call [5] of the same compound?
The mutagenic call was “inactive; negative”.

And the mutagenic call (Test System: AMES SALMONELLA TYPHIMURIUM, Strain/Indicator: TA97, Metabolic Activation: RAT, LIVER, S-9, AROCLOR 1254 (5 OR 30%), Method: PREINCUBATION)?
Its mutagenic call is “inactive; negative”.

And the mutagenic call (Test System: AMES SALMONELLA TYPHIMURIUM, Strain/Indicator: TA97, Metabolic Activation: RAT, LIVER, S-9, AROCLOR 1254 (10%), Method: PREINCUBATION)?
The mutagenic call was “inactive; negative”.

What about the mutagenic call [6] of the same compound?
The mutagenic call was “inactive; negative”.

And the mutagenic call (Test System: AMES SALMONELLA TYPHIMURIUM, Strain/Indicator: TA98, Metabolic Activation: HAMSTER, LIVER, S-9, AROCLOR 1254 (30%), Method: PREINCUBATION)?
The mutagenic call was “inactive; negative”.

And the mutagenic call [1]?
Its mutagenic call is “inactive; negative”.

What about the mutagenic call [7] of the same compound?
Its mutagenic call is “inactive; negative”.

What about the mutagenic call (Test System: AMES SALMONELLA TYPHIMURIUM, Strain/Indicator: TA98, Metabolic Activation: RAT, LIVER, S-9, AROCLOR 1254 (30%), Method: PREINCUBATION) of the same compound?
Its mutagenic call is “inactive; negative”.

What about the mutagenic call [8] of the same compound?
Its mutagenic call is “inactive; negative”.

What about the mutagenic call (Test System: AMES SALMONELLA TYPHIMURIUM, Strain/Indicator: TA100, Metabolic Activation: HAMSTER, LIVER, S-9, AROCLOR 1254 (30%), Method: PREINCUBATION) of the same compound?
The mutagenic call was “inactive; negative”.

What about the mutagenic call [2] of the same compound?
Its mutagenic call is “inactive; negative”.

What about the mutagenic call [9] of the same compound?
The mutagenic call was “inactive; negative”.

What about the mutagenic call (Test System: AMES SALMONELLA TYPHIMURIUM, Strain/Indicator: TA100, Metabolic Activation: RAT, LIVER, S-9, AROCLOR 1254 (30%), Method: PREINCUBATION) of the same compound?
The mutagenic call was “inactive; negative”.

What about the mutagenic call [10] of the same compound?
Its mutagenic call is “inactive; negative”.

What about the mutagenic call (Test System: AMES SALMONELLA TYPHIMURIUM, Strain/Indicator: TA1535, Metabolic Activation: HAMSTER, LIVER, S-9, AROCLOR 1254 (30%), Method: PREINCUBATION) of the same compound?
Its mutagenic call is “inactive; negative”.

And the mutagenic call [11]?
The mutagenic call was “inactive; negative”.

What about the mutagenic call (Test System: AMES SALMONELLA TYPHIMURIUM, Strain/Indicator: TA1535, Metabolic Activation: RAT, LIVER, S-9, AROCLOR 1254 (30%), Method: PREINCUBATION) of the same compound?
Its mutagenic call is “inactive; negative”.

What about the mutagenic call [12] of the same compound?
The mutagenic call was “inactive; negative”.

What about the mutagenic call (Test System: AMES SALMONELLA TYPHIMURIUM, Strain/Indicator: TA1537, Metabolic Activation: HAMSTER, LIVER, S-9, AROCLOR 1254 (30%), Method: PREINCUBATION) of the same compound?
Its mutagenic call is “inactive; negative”.

What about the mutagenic call [13] of the same compound?
Its mutagenic call is “inactive; negative”.

What about the mutagenic call [14] of the same compound?
Its mutagenic call is “inactive; negative”.

And the mutagenic call (Test System: AMES SALMONELLA TYPHIMURIUM, Strain/Indicator: TA1537, Metabolic Activation: RAT, LIVER, S-9, AROCLOR 1254 (30%), Method: PREINCUBATION)?
The mutagenic call was “inactive; negative”.

How did the mutagenic call (Test System: AMES SALMONELLA TYPHIMURIUM, Strain/Indicator: TA98, Metabolic Activation: NONE) turn out when CCOC(=O)[C@H](CCc1ccccc1)N[C@@H](C)C(=O)N(CC(=O)O)C1Cc2ccccc2C1 was run?
The mutagenic call was “inactive; negative”.

And the mutagenic call (Test System: AMES SALMONELLA TYPHIMURIUM, Strain/Indicator: TA98, Metabolic Activation: S-9)?
The mutagenic call was “inactive; negative”.

What about the mutagenic call (Test System: AMES SALMONELLA TYPHIMURIUM, Strain/Indicator: TA100, Metabolic Activation: NONE) of the same compound?
Its mutagenic call is “inactive; negative”.

And the mutagenic call (Test System: AMES SALMONELLA TYPHIMURIUM, Strain/Indicator: TA100, Metabolic Activation: S-9)?
Its mutagenic call is “inactive; negative”.

What about the mutagenic call (Test System: AMES SALMONELLA TYPHIMURIUM, Strain/Indicator: TA1535, Metabolic Activation: NONE) of the same compound?
The mutagenic call was “inactive; negative”.

What about the mutagenic call (Test System: AMES SALMONELLA TYPHIMURIUM, Strain/Indicator: TA1535, Metabolic Activation: S-9) of the same compound?
Its mutagenic call is “inactive; negative”.

What about the mutagenic call (Test System: AMES SALMONELLA TYPHIMURIUM, Strain/Indicator: TA1537, Metabolic Activation: NONE) of the same compound?
The mutagenic call was “inactive; negative”.

What about the mutagenic call (Test System: AMES SALMONELLA TYPHIMURIUM, Strain/Indicator: TA1537, Metabolic Activation: S-9) of the same compound?
Its mutagenic call is “inactive; negative”.

And the mutagenic call (Test System: E. COLI, Strain/Indicator: WP2 UVRA, Metabolic Activation: NONE)?
Its mutagenic call is “inactive; negative”.

What about the mutagenic call (Test System: E. COLI, Strain/Indicator: WP2 UVRA, Metabolic Activation: S-9) of the same compound?
The mutagenic call was “inactive; negative”.
